The subject of the experiment is genotype A, "Long" strain RSV. Put plainly: RSV-A in vitro cytoprotection assay in HEp-2 cells (ATPlite readout of cell viability). It is filed as cell-based, Human respiratory syncytial virus. Particulars: human respiratory syncytial virus, HEp-2, HEp-2 cells, genotype A “Long” strain RSV, cytoprotection; read-out: Human RSV-A (“Long” strain) EC50. The text has this: RSV is a single stranded negative sense RNA virus that causes respiratory tract infections which can be dangerous to infants, the elderly, and immunosuppressed individuals. Currently there is no vaccine, and therapeutic options are both costly and of limited effectiveness. These approved treatments are Ribavirin, and Palivizumab/Synagis (a monoclonal antibody). RSV has two genotypes, A and B, which differ primarily in the structure of the virus' surface “G” attachment protein. Our current primary screen focuses on RSV-A and uses an in vitro cytoprotection assay where compounds are added in 2-fold dilutions to cells which are then subjected to fully replicative viral particles. Cell viability is measured several days later along with separate measurements of compound cytotoxicity. This report focuses on the results of our most recent screening of compounds.
HEp-2 cells, (originally derived from tumors grown in irradiated-cortisonised weanling rats that had been injected with epidermoid carcinoma tissue from a person's larynx, but later found to be indistinguishable from HeLa cells by PCR DNA analysis), were used for the culturing of genotype A, “Long” strain RSV. Flasks were inoculated with RSV and viral stocks were collected once cytopathic effect (CPE) was greater than 90%. Viral stocks in 25% sucrose media were snap frozen using liquid nitrogen to increase viral stability. Viral stock titers were quantified by tissue culture infectious dose 50% (TCID50) using 8,000 cells per well and 3-fold viral dilutions across a 96-well plate, cultured for 4 days.
Following extensive parameter testing, the final assay is run as follows: HEp-2 cells are seeded into the inner 60 wells of a 96-well plate at 8,000 cells per well in a volume of 50 μL using Growth Media (DMEM without phenol red, 1% L-Glut, 1% Penn/Strep, 1% nonessential amino acids, 10% FBS). 2-Fold serial dilutions of control and test compounds are added to the wells in duplicate in a total volume of 25 μL. Viral stock is then added to the wells in a volume of 25 μL, bringing the total volume of each well to 100 μL. Each 96-well plate has a control column of 6 wells with cells and virus but no compound (negative control, max CPE), a column with cells but no compound or virus (positive control, minimum CPE), and a column with no cells or virus or compound (background plate/reagent control). The control wells with cells but no virus are given an additional 25 uL of growth media containing an equal quantity of sucrose as those wells receiving the viral stock in order to keep consistent in media and volume conditions. The outer wells of the plate are filled with 125 μL of growth media to act as a thermal and evaporative moat around the test wells. Following a 4-day incubation period, the plates are read using ATPlite (50 uL added per well), which quantifies the amount of ATP (a measure of cell health) present in each well. Assay plates are read using the Envision luminometer. In parallel, cytotoxicity is examined on an additional 96-well plate treated in an identical manner, but substituting the 25 μL of viral stock for 25 μL of growth media. […] EC50 ranges are as follows: A <0.4 μM; B 0.4-0.8 μM; C >0.8 μM.

pEC50: −log10 of the molar value.

EC50 data for 49 compounds are collected here from patent publication US10759816B2, “Heterocyclic compounds as RSV inhibitors” (Enanta Pharmaceuticals, Inc., priority 2016, dated 2020).

A word on the pEC50: it is −log10 of the EC50, conventionally taken in molar units.

For the compound `CCn1nccc1-c1cccc(C(=O)N2CCc3cc(C(=O)Nc4c(C)cccc4F)oc3-c3ccccc32)n1` [Example 273], the pEC50 was under 6.10.

Consider `O=C(NC1CC1)c1cc2c(s1)-c1ccccc1N(C(=O)c1cccc(-c3cnc(N4CCOCC4)s3)n1)CC2` [Example 161], for which the pEC50 is 6.10 to 6.40.

In the case of `CN(Cc1ccccn1)c1cccc(C(=O)N2CCc3cc(C(=O)NC4CC4)sc3-c3ccccc32)n1` [Example 286], the negative logarithm of the EC50 (pEC50) is under 6.10.

As for `O=C(NC1CC1)c1cc2c(s1)-c1ccccc1N(C(=O)c1cccc(-c3cc(N4CCOCC4)ncc3F)n1)CC2` [Example 91], the pEC50 is 6.10 to 6.40.

Turning to `CC(=O)N1CCCN(c2cccc(C(=O)N3CCc4cc(C(=O)Nc5c(C)cccc5F)sc4-c4ccccc43)n2)c2ccccc21` [Example 378], the pEC50 was over 6.40.

In the case of `Cc1cccc(F)c1NC(=O)c1cc2c(s1)-c1ccccc1N(C(=O)c1cccc(-c3cnc(C4CC4)n3C3CC3)n1)CC2` [Example 200], the pEC50 was over 6.40.

As to `Cc1cccc(F)c1NC(=O)c1cc2c(s1)-c1ccccc1N(C(=O)c1cccc(-c3cnc(C(F)(F)F)n3C3CC3)n1)CC2` [Example 202], the pEC50 was over 6.40.

`COc1cc(-c2cccc(C(=O)N3CCc4cc(C(=O)NC5CC5)sc4-c4ccccc43)n2)ccn1` [Example 72]: the pEC50 is 6.10 to 6.40.

In the case of `Cc1cccc(F)c1NC(=O)c1cc2c(s1)-c1ccccc1N(C(=O)c1cccc(N3CCS(=O)(=O)c4ccc(F)cc4C3)n1)CC2` [Example 436], the pEC50 was over 6.40.

In the case of `Cc1cccc(F)c1NC(=O)c1cc2c(s1)-c1ccccc1N(C(=O)c1cccc(-n3c(=O)[nH]c4ccccc43)n1)CC2` [Example 450], the pEC50 is over 6.40.

`Cc1cccc(F)c1NC(=O)c1cc2c(s1)-c1ccccc1N(C(=O)c1cccc(N3CCC[C@H]3c3ccccn3)n1)CC2` [Example 485]: the pEC50 was under 6.10.

For `Cc1cccc(F)c1NC(=O)c1cc2c(s1)-c1ccc(F)cc1N(C(=O)c1cccc(-c3c[nH]c4ncccc34)n1)CC2` [Example 173], the pEC50 was over 6.40.

In the case of `Cc1cccc(F)c1NC(=O)c1cc2c(s1)-c1ccccc1N(C(=O)c1cccc(-c3cn(C(=O)N(C)C)nc3C3CC3)n1)CC2` [Example 219], the pEC50 is 6.10 to 6.40.

Consider `CN1CCC(NC(=O)c2cc3c(s2)-c2ccccc2N(C(=O)c2cccc(N4CCOc5ccccc5C4)n2)CC3)CC1` [Example 308], for which the pEC50 was over 6.40.

Turning to `Cc1cccc(F)c1NC(=O)c1cc2c(s1)-c1ccccc1N(C(=O)c1ccc(NC(=O)N3CCCOCC3)cc1)CC2` [Example 131], the pEC50 was under 6.10.

`Cc1cccc(F)c1NC(=O)c1cc2c(s1)-c1ccccc1N(C(=O)c1cccc(N3C[C@H](O)C[C@@H]3C)n1)CC2` [Example 480]: the pEC50 is over 6.40.

As for `Cc1cccc(F)c1NC(=O)c1cc2c(s1)-c1ccccc1N(C(=O)c1cccc(-c3ccc4c(c3)CN(C)C4=O)n1)CC2` [Example 195], the pEC50 was over 6.40.

For the compound `O=C(NC1CC1)c1cc2c(s1)-c1ccccc1N(C(=O)c1cccc(-c3cccc(C(=O)N4CCOCC4)c3)n1)CC2` [Example 69], the negative-log EC50 (pEC50) is 6.10 to 6.40.

On to `Cc1cccc(F)c1NC(=O)c1cc2c(s1)-c1c(F)cccc1N(C(=O)c1cccc(N3CCOc4ccccc4C3)n1)CC2` [Example 489], for which the pEC50 is over 6.40.

On to `CCN(CCOC)c1cccc(C(=O)N2CCc3cc(C(=O)Nc4c(C)cccc4F)sc3-c3ccccc32)n1` [Example 348], for which the pEC50 was over 6.40.

Take `COC(=O)N[C@H]1C[C@H](C)N(c2cccc(C(=O)N3CCc4cc(C(=O)Nc5c(C)cccc5F)sc4-c4ccccc43)n2)C1` [Example 391]: the negative-log EC50 (pEC50) is over 6.40.

As for `Cc1cccc(F)c1NC(=O)c1cc2c(s1)-c1ccccc1N(C(=O)c1cccc(-c3ccc4occc4c3)n1)CC2` [Example 193], the pEC50 is under 6.10.

As to `O=C(Nc1cc2c(s1)-c1ccccc1N(C(=O)c1cccc(N3CCOc4ccccc4C3)n1)CC2)NS(=O)(=O)C1CC1` [Example 316], the pEC50 was under 6.10.

For `COc1ccccc1CN(C)c1cccc(C(=O)N2CCc3cc(C(=O)Nc4c(C)cccc4F)sc3-c3ccccc32)n1` [Example 341], the pEC50 was over 6.40.

`CC(C)Oc1ccc(-c2cccc(C(=O)N3CCc4cc(C(=O)NC5CC5)sc4-c4ccccc43)n2)cn1` [Example 75]: the pEC50 was 6.10 to 6.40.

Consider `Cc1cccc(F)c1NC(=O)c1cc2c(s1)-c1ccccc1N(C(=O)c1cccc(N(C)Cc3ccccc3-c3ccccc3)n1)CC2` [Example 355], for which the pEC50 is under 6.10.

In the case of `CCS(=O)(=O)n1cc(-c2cccc(C(=O)N3CCc4cc(C(=O)Nc5c(C)cccc5F)sc4-c4ccccc43)n2)c(C2CC2)n1` [Example 220], the negative-log EC50 (pEC50) is 6.10 to 6.40.

Regarding `Cc1cccc(F)c1NC(=O)c1cc2c(s1)-c1ccccc1N(C(=O)c1cccc(-c3cncn3C3CCC3)n1)CC2` [Example 199], the pEC50 was over 6.40.

For `O=C(NC1CC1)c1cc2c(s1)-c1ccccc1N(C(=O)c1cccc(CN3CCOCC3)c1)CC2` [Example 2], the pEC50 was under 6.10.

Regarding `O=C(NC1CC1)c1cc2c(s1)-c1ccccc1N(C(=O)c1cccc(N3CC4(CCOCC4)C3)n1)CC2` [Example 19], the pEC50 is under 6.10.

With `Cc1cccc(F)c1NC(=O)c1cc2c(s1)-c1ccccc1N(C(=O)c1cccc(N3CCNS(=O)(=O)CC3)n1)CC2` [Example 446], the pEC50 is over 6.40.

In the case of `O=C(NC1CC1)c1cc2c(s1)-c1ccccc1N(C(=O)c1cccc(N3CCOc4ccc(F)cc4C3)n1)CC2` [Example 278], the pEC50 was over 6.40.

In the case of `Cn1nccc1-c1cccc(C(=O)N2CCc3cc(C(=O)Nc4ccccc4N)sc3-c3ccccc32)n1` [Example 242], the pEC50 was over 6.40.

`O=C(NC1CC1)c1cc2c(s1)-c1ccccc1N(C(=O)c1cccc(N3CCOC[C@H]3c3ccccc3)n1)CC2` [Example 277]: the negative-log EC50 (pEC50) was under 6.10.

Take `O=C(NC1CC1)c1cc2c(s1)-c1ccccc1N(C(=O)c1cccc(N3CCc4ccccc4CC3)n1)CC2` [Example 31]: the pEC50 is under 6.10.

For `Cc1cccc(F)c1NC(=O)c1cc2c(s1)-c1ccccc1N(C(=O)c1cccc(N3CCCOC(C)(C)C3)n1)CC2` [Example 402], the pEC50 is over 6.40.

For the compound `O=C(NC1CC1)c1cc2c(s1)-c1ccccc1N(C(=O)c1cccc(N3CCS(=O)(=O)c4ccccc4C3)n1)CC2` [Example 283], the pEC50 is over 6.40.

For the compound `O=C(NC1CC1)c1cc2c(s1)-c1ccccc1N(C(=O)c1ccc3c(c1)ncn3C1CCOCC1)CC2` [Example 14], the pEC50 was under 6.10.

Turning to `O=C(NC1CC1)c1cc2c(s1)-c1ccccc1N(C(=O)c1ccnc(N3CCCOCC3)n1)CC2` [Example 52], the pEC50 is 6.10 to 6.40.

With `Cc1cccc(F)c1NC(=O)c1cc2c(s1)-c1ccccc1N(C(=O)c1cccc(-c3cn[nH]c3-c3ccccc3)n1)CC2` [Example 212], the pEC50 was over 6.40.

In the case of `COc1ccc2c(c1)OCCN(c1cccc(C(=O)N3CCc4cc(C(=O)Nc5c(C)cccc5F)sc4-c4ccccc43)n1)C2` [Example 366], the negative logarithm of the EC50 (pEC50) was over 6.40.

On to `Cc1cccc(F)c1NC(=O)c1cc2c(s1)-c1ccccc1N(C(=O)c1cccc(-n3cncc3C3CC3)n1)CC2` [Example 148], for which the negative logarithm of the EC50 (pEC50) was under 6.10.

Turning to `Cc1cccc(F)c1NC(=O)c1cc2c(s1)-c1ccccc1N(C(=O)c1cccc(-c3cn(C(=O)OC(C)C)nc3C3CC3)n1)CC2` [Example 223], the pEC50 is over 6.40.

In the case of `COCCn1cc(-c2cccc(C(=O)N3CCc4cc(C(=O)NC5CC5)sc4-c4ccccc43)n2)cn1` [Example 160], the pEC50 is under 6.10.

On to `CCS(=O)(=O)CCNc1cccc(C(=O)N2CCc3cc(C(=O)Nc4c(C)cccc4F)sc3-c3ccccc32)n1` [Example 494], for which the negative logarithm of the EC50 (pEC50) is over 6.40.

As to `Cc1cccc(F)c1NC(=O)c1cc2c(o1)-c1ccccc1N(C(=O)c1cccc(-c3c[nH]c4ncccc34)n1)CC2` [Example 274], the pEC50 was over 6.40.

Regarding `COc1ccc(C(=O)N2CCc3cc(C(=O)NC4CC4)sc3-c3ccccc32)nc1N1CCCOCC1` [Example 40], the pEC50 was 6.10 to 6.40.

On to `O=C(NC1CC1)c1cc2c(s1)-c1ccccc1N(C(=O)c1csc(N3CCOCC3)n1)CC2` [Example 12], for which the pEC50 is 6.10 to 6.40.

For the compound `Cc1cccc(F)c1NC(=O)c1cc2c(s1)-c1ccccc1N(C(=O)c1cccc(N3CC4(COC4)C3)n1)CC2` [Example 426], the pEC50 is under 6.10.
